“And” between values parts separate entries of the source, which are not always exact repeats. Equal values may be shown once.
Key:
[1] = Penetration assay with finite dosage using vertical Franz diffusion cells; assay type: in vitro ADME, pig; conditions: 24 h; for % API detected in dermis (D) / % API detected in epidermis (E) / % API detected in receptor fluid (RF) / % API detected in stratum corneum (SC): finite dose 20 µL in propylene glycol, normalized amount, mean ± SD, n = 3; for % API total permeation (Perm): sum of epidermis, dermis and receptor fluid, finite dose 20 µL
Description: (§1) A porcine skin membrane was employed for both the permeation and penetration assays. […] The skin was provided by the Department of Cardiology of the Hospital Clinic (Barcelona, Spain). Dorsal unboiled skin (female white/landrace pigs) was prepared: the bristles were removed (A5 Clipper 78005-500, Oster professional, McMinnville, OR, USA) and dermatomed (Dermatome GA630, Aesculap, Tuttlingen, Germany) at 500 ± 50 μm thick. Thickness was verified with a digital micrometer 40EX (Mahr, Göttingen, Germany). Skin biopsies were cut into discs with 2.5 cm diameter. The skin discs were stored until the experiment (at −20 °C).
OECD guidelines and the published opinions of the Scientific Committee on Cosmetic Products and Non-Food Products (SCCS) were adhered in the penetration protocol. The excised pig skin was placed in a static Franz diffusion cell (Lara Spiral, Couternon, France) (1.86 cm^2 and 3 mL) with the dermis side facing the acceptor chamber. The receptor chamber was filled with receptor fluid. The receptor fluid was the same used in the kinetic assay (Section 2.4). Air bubbles entrapped below the skin were carefully removed and the assembled cells were deposited in a temperature-regulated water bath (Telesystem HP 15, H+P Labortechnik GmgH, Oberschleissheim, Germany) on top of a water-resistant magnetic stirring plate (Variomag 15 and Telemodul, H+P Labortechnik GmgH, Oberschleissheim, Germany). The homogeneity of receptor fluid was maintained by continuously stirring at 700 rpm. The system was thermostatted at 43 ± 1 °C to provide a skin surface temperature of 32 ± 1 °C.
The integrity and permeability of membranes were evaluated with the trans-epidermal water loss (TEWL) value as detailed in Section 2.3.
The finite assay protocol was conducted as described in previous studies. Briefly, 20 µL of each API solution was applied to the skin surface in the donor chamber (n = 3). According to the OECD methodology used, penetration studies were performed for 24 h. After the exposure time, the receptor fluid of all the membranes was collected to transfer to a 5 mL volumetric flask. The remaining API solution was removed from skin surface with specific washing procedure (W). Stratum corneum layers were obtained by tape stripping protocol with adhesive tape (D-Squame, Cuderm Corporation, Dallas, TX, USA) applied under controlled pressure (80 g/cm^2). Viable epidermis (E) and the dermis (D) were separated after heating the skin at 80 °C for several seconds. All samples were extracted with adequate solvent (Table 1) and filtered with a 0.45 µm Nylon filter (Cameo, Sigma-Aldrich, St. Louis, MO, USA) before HPLC quantification (Section 2.6).
The amount permeated in the skin was considered the sum of that in the epidermis, dermis, and receptor fluid. […]

[2] = Kinetic permeation assay with infinite dosage using vertical Franz diffusion cells; assay type: in vitro ADME, pig; conditions: infinite dose 300 µL in propylene glycol (DS 3%, IBU 1%, LIDO 2%, CAF 1% w/v); for Papp / AUC / Cmax: female, white/landrace, pig; for Papp / AUC / Cmax / J (flux) / AUC (%): mean ± SD; for Papp / J (flux): n = 3; for Papp: read-out: Kp (permeability coefficient) (converted); for AUC / Cmax: receptor fluid; for AUC: read-out: AUC (area under the curve); for Cmax: read-out: Cmax (maximum concentration); for Kin. of release (best-fitting kinetic model): up to 30 h; for AUC (%): percentage release
Description: as §1
The kinetic diffusion assay was conducted using a Vision Microette (Vision G2 V14.1) with an Autosampler and an Autofill Collector (Hanson Research, Chatworths, CA, USA) automated vertical diffusion cell (7 mL acceptor chamber, and surface area of application of 1.77 cm^2).
The receptor fluid (RF) used was aqueous buffer solution of PBS in the case of DS, IBU, and CAF, and NaH2PO4 (0.05 M, pH = 7) in the case of LIDO. Receptor fluid was continuously stirred with magnetic beads at 700 rpm to keep the contents of the receptor chamber homogenous. The system was thermostatted at 43 ± 1 °C to provide a skin surface temperature of 32 ± 1 °C.
Once TEWL was measured, 300 μL (infinite dose) of the four active solutions was applied in triplicate to each Franz cell (Hanson Research, Chatworths, CA, USA) and donor compartment was sealed to donor chamber to avoid evaporation. Samples (700 µL) were collected at specific times (15 min, 30 min, 1 h, 2 h, 4 h, 6 h, 10 h, 20 h, and 30 h), and automatically passed into the corresponding vial. The same volume of receptor fluid was automatically replaced with fresh solution at each sampling. The content of receptor samples was diluted in 2 mL graduated flasks and filtered with a 0.45 µm nylon filter (Cameo, Sigma-Aldrich, St Louis, MO, USA) previous analyzed with a high-performance liquid chromatography-diode array detector (HPLC-DAD) (Section […]). The kinetics of penetration were determined, simulating the drug elimination in the body.
The cumulative amount of the active pharmaceutical ingredient (API) per surface area (Qn, µg/cm^2) was obtained for each replicate cell to calculate the release of the four APIs. The equation used to determine the cumulative amount of API in the receptor fluid was the following Equation (1):(1) Qn= Cn×Vc+ ∑i=1n−1Ci×Vs/A where Qn is the cumulative amount of API released at time n (μg/cm^2); Cn is the concentration of active ingredient in the sample (μg/mL); Vc is the volume of the vertical diffusion cell; ∑i=1n−1 Ci is the sum of the concentrations of API (µg/mL) determined at sampling intervals 1 through n − 1; Vs is the sample volume and A is the surface area of the sample.
The percentage of cumulative amount of API permeated over time was calculated by the following Equation (2):(2) % Release API= Qn/Total amount of API applied×100
Experimental data of cumulative amount (Qn and % Release API) were plotted versus time or its square root ( t ) to obtain the API absorption and penetration kinetics. Different mathematical model (Zero-order, First-order and Higuchi) were evaluated with the non-linear regression software STATGRAPHICS plus 5 (Statgraphics Technologies, Inc., The Plains, VA, USA). The best-fitting model was selected according to the highest correlation coefficient value (r^2) and it was possible to calculate other parameters, such as flux (J), the permeability coefficient (Kp), lag time (Tl), the maximum concentration (Cmax), the maximum time (tmax), and the area under the curve (AUC).

Compound	% API detected in dermis (D) [1]	% API detected in epidermis (E) [1]	% API detected in receptor fluid (RF) [1]	% API detected in stratum corneum (SC) [1]	% API total permeation (Perm) [1]	Papp [2]	AUC [2]	Cmax [2]	J (flux) [2]	Kin. of release (best-fitting kinetic model) [2]	AUC (%) [2]
Cn1c(=O)c2c(ncn2C)n(C)c1=O [Caffeine, caffeine]	0.55 ± 0.09%	0.55 ± 0.23%	3.62 ± 1.75%	3.11 ± 2.33%	4.72 ± 1.87%	0.0242 ×10⁻⁶ cm/s	72.8 ± 32.6 µg·h/mL	13900 ± 1590 ng/mL	0.86 ± 0.07 µg/cm^2/h	Ord 0	4.55 ± 3.31%
O=C(O)Cc1ccccc1Nc1c(Cl)cccc1Cl [Diclofenac sodium]	1.41 ± 0.49%	5.54 ± 2.41%	8.53 ± 3.99%	8.08 ± 2.62%	15.49 ± 6.89%	0.0442 ×10⁻⁶ cm/s	168 ± 38.5 µg·h/mL	38100 ± 10000 ng/mL	3.94 ± 0.77 µg/cm^2/h	Ord 0	15.43 ± 4.41%
CC(C)Cc1ccc(C(C)C(=O)O)cc1 (stereo not drawn) [Ibuprofen, ibuprofen]	2.79 ± 0.37%	2.92 ± 0.61%	53% and 52.68 ± 5.01%	11% and 11.06 ± 1.15%	58.39 ± 6.32%	0.0694 ×10⁻⁶ cm/s	163 ± 28.3 µg·h/mL	66700 ± 16100 ng/mL	2.60 ± 0.69 µg/cm^2/h	Ord 0	38.97 ± 4.56 %

Reference: paper PMC8000447, “Assessment of Finite and Infinite Dose In Vitro Experiments in Transdermal Drug Delivery” (Pharmaceutics, 2021)
